# Earlier results in patent publication US20110015074A1, “STABILIZED HERBICIDAL FORMULATIONS AND METHODS OF USE” (priority 2009, published 2011).
# Settings: sunlight (UV), after the end of the second year of storage period
smiles,measurement,value
"CCSC(C)CC1CC(=O)C(/C(CC)=N/OC/C=C/Cl)=C(O)C1 (racemic) [clethodim (technical), (±)-2-[(E)-1-[(E)-3-Chloroallyloxyimino]propyl]-5-[2-(ethylthio)propyl]-3-hydroxycyclohex-2-enone]",loss or degradation of clethodim,42.33 % active ingredient
